This note sets out measurements from patent US20240368668A1, “SUBSTRATES AND BIOMARKERS OF ADAMTS7” (The Broad Institute, Inc., priority 2021, published 2024).

This experiment relates to mouse ADAMTS7. As to the kind of experiment: TMT10 TAILS N-terminomics, HUVEC experiment (process replicates, trypsin/AspN digest). The format is cell-based, human. The following applies: HUVEC TAILS HC; log fold change of N-terminal peptide, Ad-mADAMTS7 WT over EQ. In a few lines: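 Full-length mouse ADAMTS7 (WT or E373Q mutant, C-terminal 3xFLAG) or luciferase was transduced via adenovirus, 50 MOI, into HCA-SMC (SMC1, SMC2) or HUVEC. SMC1: pooled media, technical triplicates 400 ug; SMC2: process triplicates 300 ug; HUVEC: process triplicates 200 ug, bFGF2 10 ng/ml.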
Substance “COL18A1_1505 (LQPPVVQLHDSNPYPR; listed as Homo sapiens)” displayed a logFC.mWT.over.mEQ of 3.88.

For “LTBP2_79 (VAGLQPVER; listed as Homo sapiens)”, the logFC.mWT.over.mEQ is reported as 1.51.

Turning to “LTBP2_250 (SAAGEGTLAR; listed as Homo sapiens)”, the logFC.mWT.over.mEQ amounted to 1.71.

Substance “LTBP2_502 (LVENSVETRPPPWLPASPGHSLW; listed as Homo sapiens)” came in with a logFC.mWT.over.mEQ of 2.68.

“LTBP3_208 (FLVPLGPGQISA; listed as Homo sapiens)” registered a logFC.mWT.over.mEQ of 2.14.

On to “MAP4_815 (AVASTGPSSR; listed as Homo sapiens)”, for which the logFC.mWT.over.mEQ amounted to 2.51.

“MAP4_816 (VASTGPSSR; listed as Homo sapiens)” showed a logFC.mWT.over.mEQ of 2.05.

Regarding “NID1_360 (FHQQHPQVI; listed as Homo sapiens)”, the logFC.mWT.over.mEQ was 1.78.

“NID2_291 (HSSVPLGR; listed as Homo sapiens)”: the logFC.mWT.over.mEQ was 2.90.

On to “NUCB1_317 (FLASTQR; listed as Homo sapiens)”, for which the logFC.mWT.over.mEQ stood at 2.65.

Substance “NUCB1_389 (LQQAVLHMEQR; listed as Homo sapiens)” showed a logFC.mWT.over.mEQ of 1.54.

In turn, “SERBP1_56 (QAAAQTNSNAAGKQLR; listed as Homo sapiens)” returned a logFC.mWT.over.mEQ of 1.43.

With “SPOCK1_27 (LAGGAGPNHGNFL; listed as Homo sapiens)”, the logFC.mWT.over.mEQ is listed as 1.07.

“SRGN_59 (LLPGESNKIPR; listed as Homo sapiens)”: the logFC.mWT.over.mEQ is reported as 1.17.

As to “THBS2_290 (LSENLKR; listed as Homo sapiens)”, the logFC.mWT.over.mEQ worked out at 4.41.
